One block for each molecule: values may come before it.
Assays:
[1] = Drug level in Sprague-Dawley rat bile treated with [14C]-AZD3839 at 58 umol/kg, po after 48 hrs by LC-MS analysis; format: ADME, organism-based; settings: in vivo
Liver microsome [2] = experiment: Drug level in Sprague-Dawley rat liver microsomes treated with (S)-1-pyridin-4-yl-4-fluoro-1-(3-(pyrimidin-5-yl)phenyl)-1H-isoindol-3-amine at 1 uM after 30 mins by LC-MS analysis; format: ADME; settings: 0.5 h
Cytochrome P450 3A4 = Cytochrome P450 3A4 (Homo sapiens, UniProt P08684); experiment: Activity of human recombinant CYP3A4 expressed in insect BTI-TN-5B1-4 cell microsomes assessed as enzyme-mediated drug metabolism treated with (S)-1-pyridin-4-yl-4-fluoro-1-(3-(pyrimidin-5-yl)phenyl)-1H-isoindol-3-amine at 2 uM after 30 mins; format: ADME; settings: bti-tn-5b1-4, 0.5 h
Liver microsome [3] = experiment: Drug level in human liver microsomes treated with (S)-1-pyridin-4-yl-4-fluoro-1-(3-(pyrimidin-5-yl)phenyl)-1H-isoindol-3-amine at 1 uM after 30 mins by LC-MS analysis; format: ADME; settings: 0.5 h
Plasma = experiment: Drug level in bile duct-cannulated Sprague-Dawley rat plasma treated with (S)-1-pyridin-4-yl-4-fluoro-1-(3-(pyrimidin-5-yl)phenyl)-1H-isoindol-3-amine at 30 umol/kg, iv after 6 hrs by LC-MS analysis; format: ADME, organism-based; settings: in vivo
[4] = Drug metabolism in Sprague-Dawley rat aroclor 1254-induced liver S9 fraction assessed as (S)-4-(3-amino-4-fluoro-1-(3-(pyrimidin-5-yl)phenyl)-1H-isoindol-1-yl)-2-(difluoromethyl)pyridine 1-oxide formation at 100 uM by LC-MS analysis; format: ADME, subcellular; settings: s9, 100 µM
[5] = Drug metabolism in Sprague-Dawley rat aroclor 1254-induced liver S9 fraction assessed as 5-(3-(3-amino-1-(2-(difluoromethyl)pyridin-4-yl)-4-fluoro-1H-isoindol-1-yl)phenyl)pyrimidin-4(3H)-one formation at 100 uM by LC-MS analysis; format: ADME, subcellular; settings: s9, 100 µM
[6] = Drug metabolism in Sprague-Dawley rat aroclor 1254-induced liver S9 fraction assessed as (S)-5-(3-(3-amino-1-(2-(difluoromethyl)pyridin-4-yl)-4-fluoro-1H-isoindol-1-yl)phenyl)pyrimidine 1-oxide formation at 100 uM by LC-MS analysis; format: ADME, subcellular; settings: s9, 100 µM
Liver microsome [7] = experiment: Drug metabolism in human liver microsomes assessed as (S)-5-(3-(3-amino-1-(2-(difluoromethyl)pyridin-4-yl)-4-fluoro-1H-isoindol-1-yl)phenyl)pyrimidine 1-oxide formation at 1 uM after 30 mins by LC-MS analysis; format: ADME; settings: 0.5 h
Liver microsome [8] = experiment: Drug metabolism in human liver microsomes assessed as (S)-4-(3-amino-4-fluoro-1-(3-(pyrimidin-5-yl)phenyl)-1H-isoindol-1-yl)-2-(difluoromethyl)pyridine 1-oxide formation at 1 uM after 30 mins by LC-MS analysis; format: ADME; settings: 0.5 h
Liver microsome [9] = experiment: Drug metabolism in Sprague-Dawley rat liver microsomes assessed as (S)-4-(3-amino-4-fluoro-1-(3-(pyrimidin-5-yl)phenyl)-1H-isoindol-1-yl)-2-(difluoromethyl)pyridine 1-oxide formation at 1 uM after 30 mins by LC-MS analysis; format: ADME; settings: 0.5 h
Liver microsome [10] = experiment: Drug metabolism in Sprague-Dawley rat liver microsomes assessed as (S)-5-(3-(3-amino-1-(2-(difluoromethyl)pyridin-4-yl)-4-fluoro-1H-isoindol-1-yl)phenyl)pyrimidine 1-oxide formation at 1 uM after 30 mins by LC-MS analysis; format: ADME; settings: 0.5 h
Hepatocyte [11] = experiment: Drug level in Sprague-Dawley rat hepatocytes treated with [14C]-AZD3839 at 5 uM after 120 mins by LC-MS analysis; format: ADME, cell-based; settings: 2 h
Hepatocyte [12] = experiment: Drug level in human hepatocytes treated with [14C]-AZD3839 at 5 uM after 120 mins by LC-MS analysis; format: ADME, cell-based; settings: 2 h
Liver = experiment: Drug level in Sprague-Dawley rat aroclor 1254-induced liver S9 fraction treated with AZD3839 at 100 uM by LC-MS analysis; format: ADME, subcellular; settings: s9, 100 µM
Liver microsome [13] = experiment: Drug level in Sprague-Dawley rat liver microsomes treated with AZD3839 at 1 uM after 30 mins by LC-MS analysis; format: ADME; settings: 0.5 h
Liver microsome [14] = experiment: Drug level in human liver microsomes treated with AZD3839 at 1 uM after 30 mins by LC-MS analysis; format: ADME; settings: 0.5 h
Hepatocyte [15] = experiment: Drug level in New Zealand White rabbit hepatocytes treated with [14C]-AZD3839 at 5 uM after 120 mins by LC-MS analysis; format: ADME, cell-based, Oryctolagus cuniculus; settings: 2 h
[16] = Drug excretion in Sprague-Dawley rat feces at 30 umol/kg, iv after 48 hrs by LC-MS analysis; format: ADME, organism-based; settings: faeces, read-out: Drug excretion
[17] = Drug excretion in bile duct-cannulated Sprague-Dawley rat bile at 30 umol/kg, iv after 6 hrs by LC-MS analysis; format: ADME, organism-based; settings: read-out: Drug excretion
[18] = Drug excretion in Sprague-Dawley rat urine at 30 umol/kg, iv after 24 hrs by LC-MS analysis; format: ADME, organism-based; settings: read-out: Drug excretion
[19] = Drug excretion in Han Wistar rat feces at 5.8 umol/kg, iv by LC-MS analysis; format: ADME, organism-based; settings: faeces, read-out: Drug excretion
[20] = Drug excretion in Han Wistar rat urine at 5.8 umol/kg, iv by LC-MS analysis; format: ADME, organism-based; settings: read-out: Drug excretion
[21] = Drug metabolism in Sprague-Dawley rat bile assessed as 5-(3-(3-amino-1-(2-(difluoromethyl)pyridin-4-yl)-4-fluoro-1H-isoindol-1-yl)phenyl)-1H-imidazol-1-ol formation at 58 umol/kg, po after 48 hrs by LC-MS analysis; format: ADME, organism-based; settings: in vivo
[22] = Drug metabolism in Sprague-Dawley rat hepatocytes assessed as (2S,3S,4S,5R,6S)-6-(5-(3-(3-amino-1-(2-(difluoromethyl)pyridin-4-yl)-4-fluoro-1H-isoindol-1-yl)phenyl)-1H-imidazol-1-yloxy)-3,4,5-trihydroxytetrahydro-2H-pyran-2-carboxylic acid formation at 5 uM after 120 mins by LC-MS analysis; format: ADME, cell-based, Hepatocyte
[23] = Drug metabolism in New Zealand White rabbit hepatocytes assessed as (S)-5-(3-(3-amino-1-(2-(difluoromethyl)pyridin-4-yl)-4-fluoro-1H-isoindol-1-yl)phenyl)pyrimidine 1-oxide formation at 5 uM after 120 mins by LC-MS analysis; format: ADME, cell-based, Oryctolagus cuniculus, Hepatocyte; settings: 2 h
[24] = Drug metabolism in New Zealand White rabbit hepatocytes assessed as 1-(3-(3-amino-1-(2-(difluoromethyl)pyridin-4-yl)-4-fluoro-1H-isoindol-1-yl)phenyl)ethane-1,2-diol formation at 5 uM after 120 mins by LC-MS analysis; format: ADME, cell-based, Oryctolagus cuniculus, Hepatocyte; settings: 2 h
[25] = Drug metabolism in Sprague-Dawley rat bile assessed as (2S,3S,4S,5R,6S)-6-(5-(3-(3-amino-1-(2-(difluoromethyl)pyridin-4-yl)-4-fluoro-1H-isoindol-1-yl)phenyl)-1H-imidazol-1-yloxy)-3,4,5-trihydroxytetrahydro-2H-pyran-2-carboxylic acid formation at 58 umol/kg, po after 48 hrs by LC-MS analysis; format: ADME, organism-based; settings: in vivo
[26] = Drug metabolism in human hepatocytes assessed as (S)-5-(3-(3-amino-1-(2-(difluoromethyl)pyridin-4-yl)-4-fluoro-1H-isoindol-1-yl)phenyl)pyrimidine 1-oxide formation at 5 uM after 120 mins by LC-MS analysis; format: ADME, cell-based, Hepatocyte; settings: 2 h
[27] = Drug metabolism in human hepatocytes assessed as (S)-4-(3-amino-4-fluoro-1-(3-(pyrimidin-5-yl)phenyl)-1H-isoindol-1-yl)-2-(difluoromethyl)pyridine 1-oxide formation at 5 uM after 120 mins by LC-MS analysis; format: ADME, cell-based, Hepatocyte; settings: 2 h
[28] = Drug metabolism in human hepatocytes assessed as 1-(3-(3-amino-1-(2-(difluoromethyl)pyridin-4-yl)-4-fluoro-1H-isoindol-1-yl)phenyl)ethane-1,2-diol formation at 5 uM after 120 mins by LC-MS analysis; format: ADME, cell-based, Hepatocyte; settings: 2 h
[29] = Drug metabolism in human hepatocytes assessed as 5-(3-(3-amino-1-(2-(difluoromethyl)pyridin-4-yl)-4-fluoro-1H-isoindol-1-yl)phenyl)pyrimidin-4-ol formation at 5 uM after 120 mins by LC-MS analysis; format: ADME, cell-based, Hepatocyte; settings: 2 h
[30] = Drug metabolism in human hepatocytes assessed as 5-(3-(3-amino-1-(2-(difluoromethyl)pyridin-4-yl)-4-fluoro-1H-isoindol-1-yl)phenyl)pyrimidin-4(3H)-one formation at 5 uM after 120 mins by LC-MS analysis; format: ADME, cell-based, Hepatocyte; settings: 2 h
[31] = Drug metabolism in human hepatocytes assessed as 5-(3-(3-amino-1-(2-(difluoromethyl)-1-oxidopyridin-4-yl)-4-fluoro-1H-isoindol-1-yl)phenyl)pyrimidine 1-oxide formation at 5 uM after 120 mins by LC-MS analysis; format: ADME, cell-based, Hepatocyte; settings: 2 h
[32] = Drug metabolism in Sprague-Dawley rat hepatocytes assessed as (S)-5-(3-(3-amino-1-(2-(difluoromethyl)pyridin-4-yl)-4-fluoro-1H-isoindol-1-yl)phenyl)pyrimidine 1-oxide formation at 5 uM after 120 mins by LC-MS analysis; format: ADME, cell-based, Hepatocyte; settings: 2 h
[33] = Drug metabolism in Sprague-Dawley rat hepatocytes assessed as (S)-4-(3-amino-4-fluoro-1-(3-(pyrimidin-5-yl)phenyl)-1H-isoindol-1-yl)-2-(difluoromethyl)pyridine 1-oxide formation at 5 uM after 120 mins by LC-MS analysis; format: ADME, cell-based, Hepatocyte; settings: 2 h
[34] = Drug metabolism in Sprague-Dawley rat hepatocytes assessed as 5-(3-(3-amino-1-(2-(difluoromethyl)pyridin-4-yl)-4-fluoro-1H-isoindol-1-yl)phenyl)pyrimidin-4-ol formation at 5 uM after 120 mins by LC-MS analysis; format: ADME, cell-based, Hepatocyte; settings: 2 h
[35] = Drug metabolism in Sprague-Dawley rat hepatocytes assessed as 5-(3-(3-amino-1-(2-(difluoromethyl)-1-oxidopyridin-4-yl)-4-fluoro-1H-isoindol-1-yl)phenyl)pyrimidine 1-oxide formation at 5 uM after 120 mins by LC-MS analysis; format: ADME, cell-based, Hepatocyte; settings: 2 h

Sequence of Cytochrome P450 3A4 (P08684 whole entry): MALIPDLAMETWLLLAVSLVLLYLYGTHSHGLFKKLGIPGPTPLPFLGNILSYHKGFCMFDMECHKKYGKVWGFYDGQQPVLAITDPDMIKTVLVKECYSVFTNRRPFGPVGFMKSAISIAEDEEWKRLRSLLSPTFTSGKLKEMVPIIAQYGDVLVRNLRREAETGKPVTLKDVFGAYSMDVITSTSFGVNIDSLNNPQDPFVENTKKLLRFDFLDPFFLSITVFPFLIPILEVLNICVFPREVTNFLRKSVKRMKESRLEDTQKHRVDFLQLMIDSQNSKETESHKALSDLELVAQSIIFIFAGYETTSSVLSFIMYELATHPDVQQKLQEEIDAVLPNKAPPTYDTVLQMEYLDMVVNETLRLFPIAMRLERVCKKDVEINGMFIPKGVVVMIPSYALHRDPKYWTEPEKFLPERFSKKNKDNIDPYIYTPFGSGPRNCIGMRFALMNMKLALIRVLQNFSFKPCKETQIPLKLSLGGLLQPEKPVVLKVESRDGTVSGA

Drug metabolism [1]: metabolite_detected
Structure (SMILES): NC1=NC(c2cccc(-c3cncn3O)c2)(c2ccnc(C(F)F)c2)c2cccc(F)c21 (stereo not given)

Drug metabolism (Liver microsome [2]): metabolite_detected
Drug metabolism (Cytochrome P450 3A4): metabolite_detected
Drug metabolism (Liver microsome [3]): metabolite_detected
Drug metabolism (Plasma): metabolite_detected
Structure (SMILES): NC1=NC(c2cc[n+]([O-])cc2)(c2cccc(-c3cncnc3)c2)c2cccc(F)c21 (stereo not given)

Drug metabolism [4]: metabolite_detected
Drug metabolism [5]: metabolite_detected
Drug metabolism [6]: metabolite_detected
Drug metabolism (Liver microsome [7]): metabolite_detected
Drug metabolism (Liver microsome [8]): metabolite_detected
Drug metabolism (Liver microsome [9]): metabolite_detected
Drug metabolism (Liver microsome [10]): metabolite_detected
Structure (SMILES): NC1=N[C@@](c2cccc(-c3cncnc3)c2)(c2ccnc(C(F)F)c2)c2cccc(F)c21.O=C(O)/C=C/C(=O)O

Drug metabolism (Hepatocyte [11]): metabolite_detected
Drug metabolism (Hepatocyte [12]): metabolite_detected
Drug metabolism (Liver): metabolite_detected
Drug metabolism (Liver microsome [13]): metabolite_detected
Drug metabolism (Liver microsome [14]): metabolite_detected
Structure (SMILES): NC1=N[C@@](c2cccc(-c3cncnc3)c2)(c2cc[n+]([O-])c(C(F)F)c2)c2cccc(F)c21

Drug metabolism (Hepatocyte [11]): metabolite_detected
Drug metabolism (Hepatocyte [15]): metabolite_detected
Drug metabolism (Hepatocyte [12]): metabolite_detected
Drug metabolism (Liver): metabolite_detected
Drug metabolism (Liver microsome [13]): metabolite_detected
Drug metabolism (Liver microsome [14]): metabolite_detected
Structure (SMILES): NC1=N[C@@](c2cccc(-c3cnc[n+]([O-])c3)c2)(c2ccnc(C(F)F)c2)c2cccc(F)c21

Drug metabolism (Plasma): metabolite_detected
Structure (SMILES): NC1=NC(c2cc[n+]([O-])cc2)(c2cccc(-c3cnc[n+]([O-])c3)c2)c2cccc(F)c21 (stereo not given)

Drug metabolism (Hepatocyte [15]): metabolite_detected
Drug metabolism (Hepatocyte [12]): metabolite_detected
Structure (SMILES): NC1=NC(c2cccc(C(O)CO)c2)(c2ccnc(C(F)F)c2)c2cccc(F)c21 (stereo not given)

dose excreted at 48 h [16]: > 90%
dose excreted at 6 h [17]: 55%
dose excreted at 24 h [18]: < 10%
Structure (SMILES): [3H]c1cc(-c2c([3H])nc([3H])nc2[3H])cc([C@@]2(c3cc([3H])nc([3H])c3)N=C(N)c3c(F)cccc32)c1

Drug metabolism (Hepatocyte [11]): metabolite_detected
Drug metabolism [1]: metabolite_detected
Structure (SMILES): NC1=NC(c2cccc(-c3cncn3O[C@@H]3O[C@H](C(=O)O)[C@@H](O)[C@H](O)[C@H]3O)c2)(c2ccnc(C(F)F)c2)c2cccc(F)c21 (stereo not given in full)

dose excreted [19]: > 90%
dose excreted [20]: < 1%
Drug metabolism [21]: metabolite_detected
Drug metabolism [22]: metabolite_detected
Drug metabolism [23]: metabolite_detected
Drug metabolism [24]: metabolite_detected
Drug metabolism [25]: metabolite_detected
Drug metabolism [26]: metabolite_detected
Drug metabolism [27]: metabolite_detected
Drug metabolism [28]: metabolite_detected
Drug metabolism [29]: metabolite_detected
Drug metabolism [30]: metabolite_detected
Drug metabolism [31]: metabolite_detected
Drug metabolism [32]: metabolite_detected
Drug metabolism [33]: metabolite_detected
Drug metabolism [34]: metabolite_detected
Drug metabolism [35]: metabolite_detected
Structure (SMILES): NC1=N[C@](c2ccnc(C(F)F)c2)([14c]2[14cH][14cH][14cH][14c](-c3cncnc3)[14cH]2)c2cccc(F)c21.O=C(O)/C=C/C(=O)O

Drug metabolism (Hepatocyte [11]): metabolite_detected
Drug metabolism (Hepatocyte [12]): metabolite_detected
Structure (SMILES): NC1=NC(c2cccc(-c3cnc[n+]([O-])c3)c2)(c2cc[n+]([O-])c(C(F)F)c2)c2cccc(F)c21 (stereo not given)
